ChEMBL document CHEMBL5442175, “EUbOPEN Chemogenomics Library - PDSP Secondary Binding” (2024)
Blank lines part the entries; values can stand above or below the compound they belong to.

Key:
Histamine H3 receptor = Histamine H3 receptor (Homo sapiens, UniProt Q9Y5N1); assay: (§1) PDSP Secondary Binding target: HRH3 - Compounds are tested at 10 uM concentration, plate are incubated at room temperature in the dark for 90 minutes. Reaction are stopped by vacuum filtration onto 0.3% polyethyleneimine soaked filter mats using Filtermate harvester. Scintillation cocktail is then melted onto microwave-dried filters on a hot plate and the radio activity is counted in Microbia counter.
Histamine H4 receptor = Histamine H4 receptor (Homo sapiens, UniProt Q9H3N8); assay: as §1, with “HRH4” for “HRH3”
[1] = target: T1, Alpha-2A adrenergic receptor (Homo sapiens, UniProt P08913); assay: as §1, with “ADRA2A” for “HRH3”
T1 sequence (P08913 whole entry): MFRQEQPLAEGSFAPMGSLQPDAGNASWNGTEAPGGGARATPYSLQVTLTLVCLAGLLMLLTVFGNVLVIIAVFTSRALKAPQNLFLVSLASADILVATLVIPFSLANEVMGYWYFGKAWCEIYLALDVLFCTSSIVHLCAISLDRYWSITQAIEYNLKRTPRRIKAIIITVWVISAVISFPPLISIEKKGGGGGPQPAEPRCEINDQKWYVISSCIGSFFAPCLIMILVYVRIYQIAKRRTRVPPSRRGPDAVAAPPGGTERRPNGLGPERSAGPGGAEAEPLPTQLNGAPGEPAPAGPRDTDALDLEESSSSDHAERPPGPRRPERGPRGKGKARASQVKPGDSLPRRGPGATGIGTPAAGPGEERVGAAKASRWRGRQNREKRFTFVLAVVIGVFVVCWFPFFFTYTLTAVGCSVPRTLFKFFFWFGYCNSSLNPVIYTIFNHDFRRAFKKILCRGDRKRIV

Mu-type opioid receptor = Mu-type opioid receptor (Homo sapiens, UniProt P35372); assay: as §1, with “OPRM1” for “HRH3”
[2] = target: Delta-type opioid receptor (Homo sapiens, UniProt P41143); assay: as §1, with “OPRD1” for “HRH3”
[3] = target: T2, Muscarinic acetylcholine receptor M5 (Homo sapiens, UniProt P08912); assay: as §1, with “CHRM5” for “HRH3”
T2 sequence (P08912 whole entry): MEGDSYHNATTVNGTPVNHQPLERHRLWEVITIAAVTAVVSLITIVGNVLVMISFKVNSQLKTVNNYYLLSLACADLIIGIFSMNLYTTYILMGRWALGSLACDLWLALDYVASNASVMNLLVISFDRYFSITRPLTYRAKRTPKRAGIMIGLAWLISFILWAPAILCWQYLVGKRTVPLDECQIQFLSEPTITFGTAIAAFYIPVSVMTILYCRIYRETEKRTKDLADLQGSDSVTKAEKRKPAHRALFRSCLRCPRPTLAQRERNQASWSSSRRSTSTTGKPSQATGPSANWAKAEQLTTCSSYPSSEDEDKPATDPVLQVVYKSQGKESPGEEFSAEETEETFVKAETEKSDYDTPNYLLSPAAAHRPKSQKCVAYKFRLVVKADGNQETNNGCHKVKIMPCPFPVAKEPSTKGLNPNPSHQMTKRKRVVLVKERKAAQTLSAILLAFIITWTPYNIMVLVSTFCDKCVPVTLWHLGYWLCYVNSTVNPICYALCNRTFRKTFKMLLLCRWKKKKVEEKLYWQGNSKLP

[4] = target: Kappa-type opioid receptor (Homo sapiens, UniProt P41145); assay: as §1, with “OPRK1” for “HRH3”
[5] = target: Sigma non-opioid intracellular receptor 1 (Homo sapiens, UniProt Q99720); assay: as §1, with “SIGMAR1” for “HRH3”
[6] = target: Muscarinic acetylcholine receptor M3 (Homo sapiens, UniProt P20309); assay: as §1, with “CHRM3” for “HRH3”
[7] = target: T3, Muscarinic acetylcholine receptor M4 (Homo sapiens, UniProt P08173); assay: as §1, with “CHRM4” for “HRH3”
T3 sequence (P08173 whole entry): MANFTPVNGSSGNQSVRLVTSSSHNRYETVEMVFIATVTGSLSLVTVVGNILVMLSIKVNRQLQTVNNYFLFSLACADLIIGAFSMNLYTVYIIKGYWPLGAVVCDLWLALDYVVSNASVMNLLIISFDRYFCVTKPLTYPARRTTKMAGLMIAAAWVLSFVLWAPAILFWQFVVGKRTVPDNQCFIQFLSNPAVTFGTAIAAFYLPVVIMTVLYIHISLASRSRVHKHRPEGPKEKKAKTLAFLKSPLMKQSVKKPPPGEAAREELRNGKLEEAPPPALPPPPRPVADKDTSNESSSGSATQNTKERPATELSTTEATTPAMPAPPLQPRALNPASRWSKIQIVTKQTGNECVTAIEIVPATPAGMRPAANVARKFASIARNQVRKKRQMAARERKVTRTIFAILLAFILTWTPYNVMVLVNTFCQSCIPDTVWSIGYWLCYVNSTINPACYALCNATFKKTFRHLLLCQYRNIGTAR

D(4) dopamine receptor = target: T4, D(4) dopamine receptor (Homo sapiens, UniProt P21917); assay: as §1, with “DRD4” for “HRH3”
T4 sequence (P21917 whole entry): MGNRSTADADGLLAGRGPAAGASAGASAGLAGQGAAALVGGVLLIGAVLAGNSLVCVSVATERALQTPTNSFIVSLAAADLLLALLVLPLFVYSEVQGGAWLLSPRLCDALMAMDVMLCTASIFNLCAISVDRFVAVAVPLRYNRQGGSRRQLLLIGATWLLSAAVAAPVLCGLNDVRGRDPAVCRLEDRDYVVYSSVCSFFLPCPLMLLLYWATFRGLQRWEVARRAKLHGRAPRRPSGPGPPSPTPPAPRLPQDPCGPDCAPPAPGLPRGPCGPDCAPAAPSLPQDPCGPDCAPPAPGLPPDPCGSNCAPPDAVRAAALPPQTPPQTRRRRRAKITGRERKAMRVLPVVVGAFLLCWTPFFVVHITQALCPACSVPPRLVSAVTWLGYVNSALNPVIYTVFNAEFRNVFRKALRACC

[8] = target: T5, Muscarinic acetylcholine receptor M2 (Homo sapiens, UniProt P08172); assay: as §1, with “CHRM2” for “HRH3”
T5 sequence (P08172 whole entry): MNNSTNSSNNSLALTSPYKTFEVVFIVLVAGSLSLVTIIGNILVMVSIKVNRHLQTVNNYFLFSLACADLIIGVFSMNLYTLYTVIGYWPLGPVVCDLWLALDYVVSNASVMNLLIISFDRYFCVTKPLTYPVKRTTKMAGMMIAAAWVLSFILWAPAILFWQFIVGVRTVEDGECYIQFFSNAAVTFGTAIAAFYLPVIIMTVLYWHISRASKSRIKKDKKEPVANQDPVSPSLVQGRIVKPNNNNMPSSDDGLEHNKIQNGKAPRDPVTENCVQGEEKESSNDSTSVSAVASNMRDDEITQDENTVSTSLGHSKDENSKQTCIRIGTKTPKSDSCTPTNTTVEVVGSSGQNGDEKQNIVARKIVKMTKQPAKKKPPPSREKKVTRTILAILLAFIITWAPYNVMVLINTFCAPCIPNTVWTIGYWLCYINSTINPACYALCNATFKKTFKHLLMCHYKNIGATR

Histamine H2 receptor = Histamine H2 receptor (Homo sapiens, UniProt P25021); assay: as §1, with “HRH2” for “HRH3”
D(3) dopamine receptor = D(3) dopamine receptor (Homo sapiens, UniProt P35462); assay: as §1, with “DRD3” for “HRH3”
[9] = target: T6, Muscarinic acetylcholine receptor M1 (Homo sapiens, UniProt P11229); assay: as §1, with “CHRM1” for “HRH3”
T6 sequence (P11229 whole entry): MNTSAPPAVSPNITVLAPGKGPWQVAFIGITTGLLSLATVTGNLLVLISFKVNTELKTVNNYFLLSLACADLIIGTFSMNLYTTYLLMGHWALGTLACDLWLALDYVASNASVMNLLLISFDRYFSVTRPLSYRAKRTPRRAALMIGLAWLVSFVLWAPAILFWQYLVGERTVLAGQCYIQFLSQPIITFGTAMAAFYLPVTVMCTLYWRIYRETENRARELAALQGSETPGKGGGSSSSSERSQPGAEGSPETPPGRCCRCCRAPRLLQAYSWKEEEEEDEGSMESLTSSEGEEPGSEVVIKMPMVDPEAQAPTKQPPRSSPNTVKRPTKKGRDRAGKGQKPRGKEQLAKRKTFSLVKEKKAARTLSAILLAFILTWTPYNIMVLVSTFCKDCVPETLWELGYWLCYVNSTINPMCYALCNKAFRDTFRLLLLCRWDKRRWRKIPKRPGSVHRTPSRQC

[10] = target: Beta-2 adrenergic receptor (Homo sapiens, UniProt P07550); assay: as §1, with “ADRB2” for “HRH3”
[11] = target: Sodium-dependent dopamine transporter (Homo sapiens, UniProt Q01959); assay: as §1, with “SLC6A3” for “HRH3”
[12] = target: 5-hydroxytryptamine receptor 2A (Homo sapiens, UniProt P28223); assay: as §1, with “HTR2A” for “HRH3”
Histamine H1 receptor = Histamine H1 receptor (Homo sapiens, UniProt P35367); assay: as §1, with “HRH1” for “HRH3”
[13] = target: Sigma intracellular receptor 2 (Homo sapiens, UniProt Q5BJF2); assay: as §1, with “TMEM97” for “HRH3”
[14] = target: Sodium-dependent noradrenaline transporter (Homo sapiens, UniProt P23975); assay: as §1, with “SLC6A2” for “HRH3”
Chain of Sodium-dependent noradrenaline transporter (P23975 whole entry): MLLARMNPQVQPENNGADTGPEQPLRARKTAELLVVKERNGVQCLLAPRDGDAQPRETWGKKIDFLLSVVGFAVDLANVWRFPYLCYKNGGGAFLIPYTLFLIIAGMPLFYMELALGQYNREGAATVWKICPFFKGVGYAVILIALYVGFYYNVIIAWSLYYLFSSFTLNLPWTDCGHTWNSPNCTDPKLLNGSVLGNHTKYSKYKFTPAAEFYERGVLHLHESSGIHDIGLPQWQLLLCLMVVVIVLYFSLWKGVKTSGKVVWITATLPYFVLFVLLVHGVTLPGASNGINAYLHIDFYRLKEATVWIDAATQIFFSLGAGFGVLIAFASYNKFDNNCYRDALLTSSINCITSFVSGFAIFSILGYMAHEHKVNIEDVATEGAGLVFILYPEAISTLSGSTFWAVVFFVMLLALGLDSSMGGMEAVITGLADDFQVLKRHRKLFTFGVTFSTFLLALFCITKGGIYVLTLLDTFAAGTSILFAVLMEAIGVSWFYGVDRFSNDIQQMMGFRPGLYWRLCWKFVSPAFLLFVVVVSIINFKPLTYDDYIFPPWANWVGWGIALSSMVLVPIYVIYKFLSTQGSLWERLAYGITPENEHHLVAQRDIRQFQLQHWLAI

Chain of Delta-type opioid receptor (P41143 whole entry): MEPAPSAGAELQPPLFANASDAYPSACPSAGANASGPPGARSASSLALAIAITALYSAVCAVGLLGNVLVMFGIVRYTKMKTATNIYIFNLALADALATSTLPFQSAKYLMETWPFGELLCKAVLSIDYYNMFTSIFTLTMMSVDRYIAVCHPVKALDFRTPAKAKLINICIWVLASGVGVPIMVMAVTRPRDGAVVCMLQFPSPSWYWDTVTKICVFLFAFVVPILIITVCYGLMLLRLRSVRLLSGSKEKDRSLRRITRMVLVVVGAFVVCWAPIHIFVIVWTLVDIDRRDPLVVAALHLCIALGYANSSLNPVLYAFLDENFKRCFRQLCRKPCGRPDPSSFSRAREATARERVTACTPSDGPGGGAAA
Chain of Sigma non-opioid intracellular receptor 1 (Q99720 whole entry): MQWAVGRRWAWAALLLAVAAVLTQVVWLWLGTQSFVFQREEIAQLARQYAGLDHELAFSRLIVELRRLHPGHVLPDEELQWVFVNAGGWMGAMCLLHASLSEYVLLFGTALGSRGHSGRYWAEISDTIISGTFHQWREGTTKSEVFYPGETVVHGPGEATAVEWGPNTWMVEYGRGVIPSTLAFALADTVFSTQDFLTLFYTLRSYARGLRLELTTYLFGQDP
Chain of Mu-type opioid receptor (P35372 whole entry): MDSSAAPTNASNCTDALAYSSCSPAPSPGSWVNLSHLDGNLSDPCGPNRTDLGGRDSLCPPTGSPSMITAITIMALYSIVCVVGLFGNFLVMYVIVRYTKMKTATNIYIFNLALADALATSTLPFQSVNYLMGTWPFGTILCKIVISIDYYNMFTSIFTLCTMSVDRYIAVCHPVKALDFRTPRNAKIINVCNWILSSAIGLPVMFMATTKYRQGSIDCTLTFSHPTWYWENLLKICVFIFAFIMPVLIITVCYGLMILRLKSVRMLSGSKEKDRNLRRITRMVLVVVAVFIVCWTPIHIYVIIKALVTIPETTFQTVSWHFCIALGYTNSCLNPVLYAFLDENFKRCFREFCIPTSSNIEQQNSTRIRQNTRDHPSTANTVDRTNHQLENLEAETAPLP
Chain of Sigma intracellular receptor 2 (Q5BJF2 whole entry): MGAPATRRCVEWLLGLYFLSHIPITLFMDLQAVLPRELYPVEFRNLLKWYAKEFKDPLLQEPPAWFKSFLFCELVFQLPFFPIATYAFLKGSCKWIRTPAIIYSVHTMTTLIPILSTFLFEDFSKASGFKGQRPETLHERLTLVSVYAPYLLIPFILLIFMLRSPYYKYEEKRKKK
Chain of Kappa-type opioid receptor (P41145 whole entry): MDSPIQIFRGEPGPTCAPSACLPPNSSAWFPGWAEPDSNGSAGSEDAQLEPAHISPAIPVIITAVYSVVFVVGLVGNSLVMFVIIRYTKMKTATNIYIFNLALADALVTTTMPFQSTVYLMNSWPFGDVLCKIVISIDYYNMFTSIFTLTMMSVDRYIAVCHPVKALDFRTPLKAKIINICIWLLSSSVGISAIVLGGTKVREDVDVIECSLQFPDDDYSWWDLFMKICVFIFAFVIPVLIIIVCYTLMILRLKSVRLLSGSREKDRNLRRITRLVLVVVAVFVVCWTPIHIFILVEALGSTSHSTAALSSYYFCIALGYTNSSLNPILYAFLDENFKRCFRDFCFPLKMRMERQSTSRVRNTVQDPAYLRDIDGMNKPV
Chain of Histamine H2 receptor (P25021 whole entry): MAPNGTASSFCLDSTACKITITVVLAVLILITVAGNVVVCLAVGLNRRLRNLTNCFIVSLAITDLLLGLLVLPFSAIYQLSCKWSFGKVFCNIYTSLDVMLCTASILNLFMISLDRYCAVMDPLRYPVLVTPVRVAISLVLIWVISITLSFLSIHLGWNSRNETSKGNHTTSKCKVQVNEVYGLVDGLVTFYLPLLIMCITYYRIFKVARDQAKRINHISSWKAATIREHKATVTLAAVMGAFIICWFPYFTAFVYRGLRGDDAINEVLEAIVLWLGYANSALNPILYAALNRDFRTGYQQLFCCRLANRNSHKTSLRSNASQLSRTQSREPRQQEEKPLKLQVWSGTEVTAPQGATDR
Chain of Sodium-dependent dopamine transporter (Q01959 whole entry): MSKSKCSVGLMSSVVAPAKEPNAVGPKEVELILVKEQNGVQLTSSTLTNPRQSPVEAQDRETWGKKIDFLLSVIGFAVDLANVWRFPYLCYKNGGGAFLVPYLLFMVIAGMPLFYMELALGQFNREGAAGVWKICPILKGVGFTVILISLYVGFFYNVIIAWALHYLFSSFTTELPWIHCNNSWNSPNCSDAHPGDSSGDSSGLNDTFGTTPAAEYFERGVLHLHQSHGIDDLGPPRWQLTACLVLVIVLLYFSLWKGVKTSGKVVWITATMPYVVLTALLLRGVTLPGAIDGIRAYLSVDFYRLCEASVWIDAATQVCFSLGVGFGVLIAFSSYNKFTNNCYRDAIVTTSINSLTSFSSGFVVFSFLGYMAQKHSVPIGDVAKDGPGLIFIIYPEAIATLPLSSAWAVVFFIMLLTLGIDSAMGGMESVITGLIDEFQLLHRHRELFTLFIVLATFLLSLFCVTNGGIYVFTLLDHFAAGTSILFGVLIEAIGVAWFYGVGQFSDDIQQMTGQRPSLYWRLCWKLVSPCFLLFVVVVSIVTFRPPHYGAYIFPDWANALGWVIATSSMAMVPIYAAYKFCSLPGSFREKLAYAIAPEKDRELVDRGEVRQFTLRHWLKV
Chain of Beta-2 adrenergic receptor (P07550 whole entry): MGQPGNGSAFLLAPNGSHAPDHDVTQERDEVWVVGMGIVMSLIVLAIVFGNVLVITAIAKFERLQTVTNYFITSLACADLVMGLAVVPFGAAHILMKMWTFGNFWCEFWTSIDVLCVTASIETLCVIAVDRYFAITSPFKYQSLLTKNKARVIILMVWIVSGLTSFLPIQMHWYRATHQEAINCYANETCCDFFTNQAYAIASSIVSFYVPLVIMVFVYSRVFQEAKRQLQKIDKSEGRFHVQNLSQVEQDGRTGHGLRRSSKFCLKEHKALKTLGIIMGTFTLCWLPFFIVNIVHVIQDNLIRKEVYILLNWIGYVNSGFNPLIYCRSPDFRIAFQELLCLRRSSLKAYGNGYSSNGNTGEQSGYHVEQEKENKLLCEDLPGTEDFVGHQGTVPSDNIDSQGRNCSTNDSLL
Chain of Histamine H1 receptor (P35367 whole entry): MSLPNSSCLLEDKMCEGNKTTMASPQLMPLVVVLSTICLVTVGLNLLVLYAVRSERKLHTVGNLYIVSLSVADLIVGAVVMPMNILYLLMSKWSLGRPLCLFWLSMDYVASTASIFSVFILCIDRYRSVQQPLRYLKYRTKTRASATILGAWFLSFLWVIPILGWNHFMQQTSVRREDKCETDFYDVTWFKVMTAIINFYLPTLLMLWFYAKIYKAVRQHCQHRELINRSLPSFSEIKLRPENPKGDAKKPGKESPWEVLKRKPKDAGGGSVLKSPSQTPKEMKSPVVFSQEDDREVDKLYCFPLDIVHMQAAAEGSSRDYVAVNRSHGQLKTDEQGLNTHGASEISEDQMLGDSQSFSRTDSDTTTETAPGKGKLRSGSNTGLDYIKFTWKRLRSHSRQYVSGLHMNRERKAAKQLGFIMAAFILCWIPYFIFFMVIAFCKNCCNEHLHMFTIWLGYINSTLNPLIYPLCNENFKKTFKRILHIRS
Chain of D(3) dopamine receptor (P35462 whole entry): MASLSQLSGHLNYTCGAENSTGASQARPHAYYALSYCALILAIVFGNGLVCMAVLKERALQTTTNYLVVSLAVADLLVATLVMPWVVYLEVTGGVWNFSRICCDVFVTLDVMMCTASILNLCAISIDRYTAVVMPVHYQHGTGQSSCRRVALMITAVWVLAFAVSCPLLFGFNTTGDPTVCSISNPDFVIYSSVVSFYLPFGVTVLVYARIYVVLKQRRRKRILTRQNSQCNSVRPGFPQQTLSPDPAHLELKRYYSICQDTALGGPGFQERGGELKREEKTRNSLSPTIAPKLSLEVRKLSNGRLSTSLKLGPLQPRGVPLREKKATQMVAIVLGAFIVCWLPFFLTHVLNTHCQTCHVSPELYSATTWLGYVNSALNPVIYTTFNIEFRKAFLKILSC
Chain of 5-hydroxytryptamine receptor 2A (P28223 whole entry): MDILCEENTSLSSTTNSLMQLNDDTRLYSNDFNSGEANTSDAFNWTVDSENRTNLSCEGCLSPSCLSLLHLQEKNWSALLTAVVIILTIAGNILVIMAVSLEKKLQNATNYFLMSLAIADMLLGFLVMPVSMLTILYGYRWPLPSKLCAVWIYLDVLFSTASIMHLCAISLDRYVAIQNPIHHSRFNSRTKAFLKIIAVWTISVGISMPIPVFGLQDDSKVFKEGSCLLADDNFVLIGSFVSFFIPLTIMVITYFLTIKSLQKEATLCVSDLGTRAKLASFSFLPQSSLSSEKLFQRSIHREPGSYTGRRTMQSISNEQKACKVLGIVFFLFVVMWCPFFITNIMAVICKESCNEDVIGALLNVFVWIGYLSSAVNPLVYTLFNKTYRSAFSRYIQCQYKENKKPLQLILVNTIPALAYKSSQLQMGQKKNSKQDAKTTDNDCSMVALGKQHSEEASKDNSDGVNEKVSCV

Ki (Histamine H3 receptor): 0.632 nM
Ki (Histamine H4 receptor): 4.86 nM
Ki [1]: 4.04 µM
SMILES: N=C(N)SCCc1cnc[nH]1

SMILES: CN(C(=O)Cc1ccc(Cl)c(Cl)c1)C(CN1CCCC1)c1cccc(OCC(=O)O)c1 (stereo not drawn)
Ki (Mu-type opioid receptor): 323 nM
Ki [2]: 411 nM
Ki [3]: 5.91 µM

SMILES: C=CCN1C[C@H](C)N([C@H](c2ccc(C(=O)N(CC)CC)cc2)c2cccc(O)c2)C[C@H]1C
Ki [4]: 23.3 nM
Ki (Mu-type opioid receptor): 14.7 nM
Ki [2]: 3.85 nM
Ki [5]: 108 nM

Ki [6]: 1530 nM
Ki [7]: 181 nM
Ki (D(4) dopamine receptor): 1360 nM
Ki [8]: 243 nM
Ki [3]: 0.662 µM
Ki (Histamine H2 receptor): 3.3 µM
Ki (D(3) dopamine receptor): 480 nM
Ki [5]: 520 nM
Ki [9]: 846 nM
Ki [10]: > 10 µM
SMILES: Cc1cn2cc(CC(=O)N3CCC4(CC3)CN(Cc3ccc(-n5nccn5)cc3Cl)C4)nc2s1

Ki [11]: 3.19 µM
Ki [2]: > 10000 nM
SMILES: N#Cc1c(N)nc(SCc2csc(-c3ccc(Cl)cc3)n2)c(C#N)c1-c1ccc(OCCO)cc1 [CAPADENOSON]

SMILES: C[C@@H](N)Cc1c[nH]cn1
Ki (Histamine H4 receptor): 169 nM

Ki [12]: > 10 µM
Ki (Histamine H1 receptor): 1450 nM
Ki [2]: > 10000 nM
Ki [13]: 8.12 µM
Ki [14]: > 10 µM
SMILES: Cc1c(C2=CCN(C(=O)N(C)C(C)C)CC2)nnn1-c1cccnc1F
